Values quoted from earlier work, collected in patent publication US7569576B2, “Cyclic 1-(acyloxy)-alkyl prodrugs of GABA analogs, compositions and uses thereof” (XenoPort, Inc., priority 2002, dated 2009).

O=C1CC2(CCCCC2)CN1 [lactam 9]
toxicity (LD50, mouse): 300 mg/kg

NCC1(CC(=O)O)CCCCC1 [gabapentin]
toxicity (LD50, mouse): more than 8000 mg/kg
